Test results published in PubChem BioAssay (NCI).
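Growth conditions: 96-well plates. Treatment: test compound, 48 hours, 5 concentrations. Analysis: linear interpolation between bracketing concentrations; unreached endpoints set to highest concentration. At the GI50, growth is halved. At the TGI there is no net growth.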

Key:
Assay in all cases: inhibition of tumour cell growth, NCI panel, 48 h
NCI-H226 lung = tested on: NCI-H226 lung
NCI-H23 lung = tested on: NCI-H23 lung
NCI-H460 lung = tested on: NCI-H460 lung
NCI/ADR-RES ovarian = tested on: NCI/ADR-RES ovarian
OVCAR-3 ovarian = tested on: OVCAR-3 ovarian
OVCAR-4 ovarian = tested on: OVCAR-4 ovarian
OVCAR-5 ovarian = tested on: OVCAR-5 ovarian
OVCAR-8 ovarian = tested on: OVCAR-8 ovarian
PC-3 prostate = tested on: PC-3 prostate
RPMI-8226 leukemia = tested on: RPMI-8226 leukemia
RXF 393 renal = tested on: RXF 393 renal
SF-268 CNS = tested on: SF-268 CNS
SF-295 CNS = tested on: SF-295 CNS
SF-539 CNS = tested on: SF-539 CNS
SK-MEL-2 melanoma = tested on: SK-MEL-2 melanoma
SK-MEL-28 melanoma = tested on: SK-MEL-28 melanoma
SK-MEL-5 melanoma = tested on: SK-MEL-5 melanoma
SK-OV-3 ovarian = tested on: SK-OV-3 ovarian
SN12C renal = tested on: SN12C renal
SNB-19 CNS = tested on: SNB-19 CNS
SNB-75 CNS = tested on: SNB-75 CNS
SR leukemia = tested on: SR leukemia
SW-620 colon = tested on: SW-620 colon
T-47D breast = tested on: T-47D breast
TK-10 renal = tested on: TK-10 renal
U251 CNS = tested on: U251 CNS
UACC-257 melanoma = tested on: UACC-257 melanoma
UACC-62 melanoma = tested on: UACC-62 melanoma
UO-31 renal = tested on: UO-31 renal

Question: `COc1ccc(-c2cc3c(OC)c(OC)c(OC)cc3oc2=O)cc1` was tested. Which TGI (NCI-H226 lung) did it give?
Answer: 78.8 µM

Question: What about the GI50 (NCI-H23 lung) of the same compound?
Answer: 3.49 µM

Question: And the TGI (NCI-H23 lung)?
Answer: > 100 µM

Question: What about the GI50 (NCI-H460 lung) of the same compound?
Answer: 3.48 µM

Question: And the TGI (NCI-H460 lung)?
Answer: 17 µM

Question: What about the GI50 (NCI/ADR-RES ovarian) of the same compound?
Answer: 2020 nM

Question: And the TGI (NCI/ADR-RES ovarian)?
Answer: 7.72 µM

Question: And the GI50 (OVCAR-3 ovarian)?
Answer: 2680 nM

Question: What about the TGI (OVCAR-3 ovarian) of the same compound?
Answer: 6.45 µM

Question: What about the GI50 (OVCAR-4 ovarian) of the same compound?
Answer: 7.6 µM

Question: And the TGI (OVCAR-4 ovarian)?
Answer: > 100 µM

Question: What about the GI50 (OVCAR-5 ovarian) of the same compound?
Answer: 17.8 µM

Question: What about the TGI (OVCAR-5 ovarian) of the same compound?
Answer: > 100 µM

Question: And the GI50 (OVCAR-8 ovarian)?
Answer: 5 µM

Question: And the TGI (OVCAR-8 ovarian)?
Answer: > 100 µM

Question: And the GI50 (PC-3 prostate)?
Answer: 7.42 µM

Question: What about the TGI (PC-3 prostate) of the same compound?
Answer: > 100 µM

Question: And the GI50 (RPMI-8226 leukemia)?
Answer: 2320 nM

Question: And the TGI (RPMI-8226 leukemia)?
Answer: 17 µM

Question: And the GI50 (RXF 393 renal)?
Answer: 5.91 µM

Question: And the TGI (RXF 393 renal)?
Answer: 63.5 µM

Question: And the GI50 (SF-268 CNS)?
Answer: 4.95 µM

Question: And the TGI (SF-268 CNS)?
Answer: 90.9 µM

Question: What about the GI50 (SF-295 CNS) of the same compound?
Answer: 4.63 µM

Question: What about the TGI (SF-295 CNS) of the same compound?
Answer: > 100 µM

Question: And the GI50 (SF-539 CNS)?
Answer: 4.09 µM

Question: What about the TGI (SF-539 CNS) of the same compound?
Answer: 22.9 µM

Question: What about the GI50 (SK-MEL-2 melanoma) of the same compound?
Answer: 3.48 µM

Question: And the TGI (SK-MEL-2 melanoma)?
Answer: > 100 µM

Question: And the GI50 (SK-MEL-28 melanoma)?
Answer: 5.28 µM

Question: And the TGI (SK-MEL-28 melanoma)?
Answer: > 100 µM

Question: What about the GI50 (SK-MEL-5 melanoma) of the same compound?
Answer: 2570 nM

Question: What about the TGI (SK-MEL-5 melanoma) of the same compound?
Answer: 8.51 µM

Question: What about the GI50 (SK-OV-3 ovarian) of the same compound?
Answer: 4.67 µM

Question: And the TGI (SK-OV-3 ovarian)?
Answer: 82.2 µM

Question: And the GI50 (SN12C renal)?
Answer: 5.04 µM

Question: What about the TGI (SN12C renal) of the same compound?
Answer: > 100 µM

Question: What about the GI50 (SNB-19 CNS) of the same compound?
Answer: 5.95 µM

Question: And the TGI (SNB-19 CNS)?
Answer: > 100 µM

Question: And the GI50 (SNB-75 CNS)?
Answer: 3.39 µM

Question: What about the TGI (SNB-75 CNS) of the same compound?
Answer: 23 µM

Question: What about the GI50 (SR leukemia) of the same compound?
Answer: 1110 nM

Question: What about the TGI (SR leukemia) of the same compound?
Answer: 12.7 µM

Question: What about the GI50 (SW-620 colon) of the same compound?
Answer: 2790 nM

Question: And the TGI (SW-620 colon)?
Answer: > 100 µM

Question: What about the GI50 (T-47D breast) of the same compound?
Answer: 5.02 µM

Question: What about the TGI (T-47D breast) of the same compound?
Answer: 92.3 µM

Question: And the GI50 (TK-10 renal)?
Answer: 5.11 µM

Question: What about the TGI (TK-10 renal) of the same compound?
Answer: 65 µM

Question: And the GI50 (U251 CNS)?
Answer: 4.27 µM

Question: What about the TGI (U251 CNS) of the same compound?
Answer: > 100 µM

Question: What about the GI50 (UACC-257 melanoma) of the same compound?
Answer: 5.47 µM

Question: And the TGI (UACC-257 melanoma)?
Answer: > 100 µM

Question: What about the GI50 (UACC-62 melanoma) of the same compound?
Answer: 3.95 µM

Question: What about the TGI (UACC-62 melanoma) of the same compound?
Answer: > 100 µM

Question: What about the GI50 (UO-31 renal) of the same compound?
Answer: 5.59 µM

Question: And the TGI (UO-31 renal)?
Answer: 48.8 µM
